Key:
[1] = Solubility of the compound in aqueous buffer; format: physicochemical
[2] = molecular target: T1, Acetylcholinesterase (Electrophorus electricus, UniProt O42275); test: Uncompetitive Inhibition of Electrophorus electricus acetylcholinesterase using acetylthiocholine iodide as substrate preincubated for 20 mins followed by substrate addition measured for 30 mins by Ellman's method
[3] = molecular target: T1, Acetylcholinesterase; test: Competitive Inhibition of Electrophorus electricus acetylcholinesterase using acetylthiocholine iodide as substrate preincubated for 20 mins followed by substrate addition measured for 30 mins by Ellman's method
[4] = Cytotoxicity against mouse NIH/3T3 cells assessed as cell survival after 96 hrs by sulforhodamine-B assay; format: cell-based; details: NIH3T3, 96 h
[5] = molecular target: T1, Acetylcholinesterase; test: Inhibition of Electrophorus electricus acetylcholinesterase using acetylthiocholine iodide as substrate preincubated for 20 mins followed by substrate addition measured for 30 mins by Ellman's method
[6] = molecular target: Cholinesterase (Equus caballus, UniProt P81908); test: Inhibition of equine serum butyrylcholinesterase using butyrylthiocholineidioide as substrate preincubated for 20 mins followed by substrate addition measured for 30 mins by Ellman's method
Chain of Cholinesterase (P81908 whole entry): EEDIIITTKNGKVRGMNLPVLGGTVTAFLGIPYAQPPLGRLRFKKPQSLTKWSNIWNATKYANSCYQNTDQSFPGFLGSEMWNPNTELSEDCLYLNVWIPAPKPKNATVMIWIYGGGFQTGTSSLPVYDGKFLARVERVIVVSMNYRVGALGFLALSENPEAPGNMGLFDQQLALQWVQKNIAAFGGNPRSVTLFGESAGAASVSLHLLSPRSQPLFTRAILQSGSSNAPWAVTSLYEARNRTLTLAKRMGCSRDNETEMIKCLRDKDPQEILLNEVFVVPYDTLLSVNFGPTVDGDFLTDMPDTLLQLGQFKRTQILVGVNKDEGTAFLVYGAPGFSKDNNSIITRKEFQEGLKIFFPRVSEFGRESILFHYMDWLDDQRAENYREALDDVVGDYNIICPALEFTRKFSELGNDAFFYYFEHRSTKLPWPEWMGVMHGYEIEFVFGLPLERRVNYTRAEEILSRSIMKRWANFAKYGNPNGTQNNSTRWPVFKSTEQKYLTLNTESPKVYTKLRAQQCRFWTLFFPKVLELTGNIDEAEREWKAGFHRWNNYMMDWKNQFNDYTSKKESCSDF

T1 sequence (O42275 whole entry): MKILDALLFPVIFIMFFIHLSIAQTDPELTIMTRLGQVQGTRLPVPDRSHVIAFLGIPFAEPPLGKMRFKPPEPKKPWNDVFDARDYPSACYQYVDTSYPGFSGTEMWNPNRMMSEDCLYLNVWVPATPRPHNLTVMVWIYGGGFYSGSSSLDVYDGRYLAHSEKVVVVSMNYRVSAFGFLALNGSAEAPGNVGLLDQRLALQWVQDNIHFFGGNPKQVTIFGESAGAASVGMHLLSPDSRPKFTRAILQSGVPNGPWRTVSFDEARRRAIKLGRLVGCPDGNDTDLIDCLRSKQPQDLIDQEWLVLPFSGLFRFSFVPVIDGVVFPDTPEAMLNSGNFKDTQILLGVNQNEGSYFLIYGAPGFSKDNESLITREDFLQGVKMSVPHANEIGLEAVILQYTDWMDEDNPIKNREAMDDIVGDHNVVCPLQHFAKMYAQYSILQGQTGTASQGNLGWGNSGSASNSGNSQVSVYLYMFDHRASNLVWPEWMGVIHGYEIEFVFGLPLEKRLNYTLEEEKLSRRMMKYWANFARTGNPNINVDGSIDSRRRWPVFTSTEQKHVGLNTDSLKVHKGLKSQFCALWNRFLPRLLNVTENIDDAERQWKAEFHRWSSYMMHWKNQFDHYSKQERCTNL

SMILES	Ki [2] [µM]	Ki [3] [µM]	EC50 [4] [µM]	further results
C=CCCOC(=O)CC[C@]1(C)[C@H]2CC[C@@H]3[C@H]4[C@H]5OC[C@@]4(CCC5(C)C)CC[C@@]3(C)[C@]2(C)CC[C@H]1C(=C)C	–	–	–	solubility [1]: Insoluble
C#CCOC(=O)CC[C@]1(C)[C@H]2CC[C@@H]3[C@H]4[C@H]5OC[C@@]4(CCC5(C)C)CC[C@@]3(C)[C@]2(C)CC[C@H]1C(=C)C	2.48	3.33	> 30	–
C=C(C)[C@@H]1CC[C@]2(C)[C@H](CC[C@@H]3[C@H]4[C@H]5OC[C@@]4(CCC5(C)C)CC[C@]32C)[C@@]1(C)CCC(=O)O	–	–	> 30	Ki [5]: 31.8 µM
N[C@@H](CO)C(=O)O [SERINE]	–	–	–	IC50 [5]: 0.015 µM; IC50 [6]: 0.016 µM
C#CCOC(=O)C[C@]1(C)[C@H]2CC[C@@H]3[C@H]4[C@H]5OC[C@@]4(CCC5(C)C)CC[C@@]3(C)[C@]2(C)CC[C@H]1C(C)(C)C(=O)OCC#C	4.63	10.5	7	–
C=CCCOC(=O)C[C@]1(C)[C@H]2CC[C@@H]3[C@H]4[C@H]5OC[C@@]4(CCC5(C)C)CC[C@@]3(C)[C@]2(C)CC[C@H]1C(C)(C)C(=O)OCCC=C	–	–	> 30	–

Reference: ChEMBL document CHEMBL3588756, “Allobetulin derived seco-oleananedicarboxylates act as inhibitors of acetylcholinesterase” (Bioorg Med Chem Lett, 2015)
